Results taken from PubChem BioAssay AID391 (SGCOxCompounds, 2006).

The compounds below were run against Serine/threonine-protein kinase PAK 6 (Homo sapiens) (UniProt Q9NQU5) (assay: ligand-induced stabilization of human PAK6 kinase – biophysical, DSF, SYPRO orange, recombinant protein (AID 391)). Conditions: recombinant PAK6, DSF thermal shift, at 10 µM, protein 2 µM, buffer 10 mM HEPES, pH 7.5, NaCl 150 mM, run set 1, stronger effect = higher value.
Chain of Serine/threonine-protein kinase PAK 6 (Homo sapiens) (Q9NQU5 whole entry, looked up): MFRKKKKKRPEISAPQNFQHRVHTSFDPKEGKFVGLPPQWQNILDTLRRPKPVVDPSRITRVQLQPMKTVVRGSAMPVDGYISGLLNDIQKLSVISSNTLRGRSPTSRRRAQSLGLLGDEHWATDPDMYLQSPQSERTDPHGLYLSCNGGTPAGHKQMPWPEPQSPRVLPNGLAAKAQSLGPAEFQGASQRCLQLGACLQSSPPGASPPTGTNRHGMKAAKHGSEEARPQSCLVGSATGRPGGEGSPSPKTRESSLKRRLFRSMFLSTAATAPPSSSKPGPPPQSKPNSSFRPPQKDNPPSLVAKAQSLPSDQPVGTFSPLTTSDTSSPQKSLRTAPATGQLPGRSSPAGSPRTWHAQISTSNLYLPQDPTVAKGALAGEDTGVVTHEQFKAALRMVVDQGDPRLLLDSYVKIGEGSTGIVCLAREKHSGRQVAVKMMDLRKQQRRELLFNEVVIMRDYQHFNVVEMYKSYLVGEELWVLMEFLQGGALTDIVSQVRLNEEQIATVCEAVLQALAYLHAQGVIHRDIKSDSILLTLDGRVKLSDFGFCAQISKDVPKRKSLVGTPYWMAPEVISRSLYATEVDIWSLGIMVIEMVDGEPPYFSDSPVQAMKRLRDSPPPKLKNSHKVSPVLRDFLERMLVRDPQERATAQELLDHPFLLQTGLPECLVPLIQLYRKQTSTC

| Compound | Tm shift |
| --- | --- |
| N=C(N)SCCCn1cc(C2=C(c3c[nH]c4ccccc34)C(=O)NC2=O)c2ccccc21 | 3.13 Celsius |
| O=C1NC(=O)c2c1c1c3ccccc3n3c1c1c2c2ccccc2n1[C@@H]1CCC3O1 | 6.44 Celsius |
| O=Nc1c(-c2c(O)[nH]c3ccc(S(O)(O)O)cc23)[nH]c2ccccc12 | 3.24 Celsius |
| CC(C)n1cnc2c(Nc3cccc(Cl)c3)nc(NCCO)nc21 | 4.44 Celsius |
| NCCCn1cc(C2=C(c3c[nH]c4ccccc34)C(=O)NC2=O)c2ccccc21 | 4.48 Celsius |
| CC(C)C(CO)Nc1nc(Nc2cccc(Cl)c2)c2ncn(C(C)C)c2n1 (centres undefined) | 5.88 Celsius |
| O=C1Cc2c([nH]c3ccc(N(O)O)cc23)-c2ccccc2N1 | 3.92 Celsius |
| NC(=O)Nc1sc(-c2ccccc2)cc1C(N)=O | 3.43 Celsius |

Same assay, conditions: recombinant PAK6, DSF thermal shift, at 10 µM, protein 2 µM, buffer 10 mM HEPES, pH 7.5, NaCl 150 mM, run set 2, stronger effect = higher value

| Compound | Tm shift |
| --- | --- |
| N#Cc1ccc(-c2cnc3ccc(NC4CCOCC4)nn23)cc1 | 3.3 Celsius |
| O=C1NCc2c1c1c3ccccc3[nH]c1c1[nH]c3ccccc3c21 | 3.1 Celsius |
| Cn1cc(/C=C2\C(=O)Nc3ccc(S(N)(=O)=O)cc32)c2ccccc21 | 4.26 Celsius |
| CCN(CC)CCNC(=O)c1c(C)[nH]c(/C=C2\C(=O)Nc3ccc(Cl)cc32)c1C | 3.8 Celsius |
| CC(C)n1cnc2c(Nc3cccc(Cl)c3)nc(NCCO)nc21 | 3.2 Celsius |
| O=C1Cc2c([nH]c3ccc(Br)cc23)-c2ccccc2N1 | 3.2 Celsius |
| Cc1cc(Nc2nc(-c3ccccc3)nc3ccccc23)n[nH]1 | 5.45 Celsius |
| CC(O)(O)C1(O)C[C@@H]2O[C@@]1(C)n1c3ccccc3c3c4c(c5c6ccccc6n2c5c31)C(=O)NC4 (some centres undefined) | 7.7 Celsius |
| NCCNc1ncc(C(N)=O)c(Nc2cccc(C(F)(F)F)c2)n1 | 5.21 Celsius |
| Nc1nc(Nc2ccc(S(N)(=O)=O)cc2)nn1C(=S)Nc1c(F)cccc1F | 5.64 Celsius |
| NC(=O)c1ccc(-c2nc(-c3ccc4c(c3)OCCO4)c(-c3ccccn3)[nH]2)cc1 | 4.8 Celsius |
| O=Nc1c(-c2c(O)[nH]c3cc(Br)ccc23)[nH]c2ccccc12 | 3.4 Celsius |
| CCn1cnc2c(Nc3cccc(Cl)c3)nc(N[C@@H]3CCCC[C@@H]3N)nc21 | 7 Celsius |
| OCC(O)CCO/N=C1/C(c2c(O)[nH]c3ccccc23)=Nc2ccccc21 (centres undefined) | 3.3 Celsius |
| O=Nc1c(-c2c(O)[nH]c3ccccc23)[nH]c2ccccc12 | 8.7 Celsius |
| Clc1ccc(-c2cnc3ccc(NC4CCOCC4)nn23)cc1 | 3.5 Celsius |
